The values below come from PubChem BioAssay (NCI).

Some test systems named below: OVCAR-8 ovarian; BT-549 breast; A549 NSCLC; SR leukemia; HS 578T breast; LOX IMVI melanoma; MCF7 breast; HL-60(TB) leukemia.
Assay in all cases: inhibition of tumour cell growth, NCI panel, 48 h

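Where inhibition never reached the appropriate level, the endpoint shown equals the highest concentration tested. Otherwise, values were interpolated linearly from a five-concentration, 48-hour dose response in 96-well plates. Abbreviation: GI50, concentration required for 50% inhibition of growth. TGI denotes the concentration required for complete inhibition of growth.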

`C[C@]12C[C@H](O)[C@H]3[C@@H](CCC4=CC(=O)CC[C@@]43C)[C@@H]1CC[C@@H]2c1csc(-c2ccccc2)n1`: the TGI in the experiment on OVCAR-8 ovarian was more than 100 µM; in the experiment on BT-549 breast it was more than 100 µM; in the experiment on A549 NSCLC, more than 100 µM; in the experiment with SR leukemia, more than 100 µM; with HS 578T breast it was more than 80 µM; in the experiment with LOX IMVI melanoma, more than 100 µM. Besides, the TGI with MCF7 breast is more than 100 µM.
For `N#CC1=C(N)NC(=O)NC12Nc1ccccc1N2`, the GI50 in the experiment with OVCAR-8 ovarian, in the experiment with BT-549 breast, in the experiment on A549 NSCLC, in the experiment with HS 578T breast, in the experiment with LOX IMVI melanoma and in the experiment on MCF7 breast was more than 100 µM each time. Also, the TGI with OVCAR-8 ovarian, with BT-549 breast, in the experiment on A549 NSCLC, in the experiment with HS 578T breast, with LOX IMVI melanoma and in the experiment with MCF7 breast was more than 100 µM each time.
On to `COc1cc2c3c(n(CCCNCCCN)c(=O)c2cc1OC)-c1cc2c(cc1C3=O)OCO2`, for which the GI50 in the experiment with HL-60(TB) leukemia was 1.46 µM; with OVCAR-8 ovarian, 1.27 µM; with BT-549 breast, 6.49 µM; in the experiment with A549 NSCLC, 6.11 µM; with HS 578T breast it was 6.28 µM; in the experiment with LOX IMVI melanoma, 0.659 µM. Besides, the GI50 in the experiment on MCF7 breast is 0.504 µM. The TGI in the experiment with HL-60(TB) leukemia was determined as 5.28 µM; in the experiment with OVCAR-8 ovarian, 13 µM; in the experiment with BT-549 breast, 20.6 µM; in the experiment on A549 NSCLC, 29.6 µM; with HS 578T breast, 42.8 µM; with LOX IMVI melanoma it was 3.42 µM. Besides, the TGI in the experiment on MCF7 breast is 5.08 µM.
Consider `COc1cc(/C=C2\CCCC3=C2N=C2SC(C)=NN2C3c2cc(OC)c(OC)c(OC)c2)cc(OC)c1OC` (stereo not drawn), for which the GI50 in the experiment with OVCAR-8 ovarian is 0.311 µM; in the experiment on BT-549 breast it was more than 100 µM; in the experiment on A549 NSCLC, more than 100 µM; in the experiment on SR leukemia, 0.347 µM; with HS 578T breast, more than 100 µM; in the experiment with MCF7 breast, 0.319 µM. Moreover, the TGI in the experiment on OVCAR-8 ovarian, in the experiment with BT-549 breast, in the experiment with A549 NSCLC, with SR leukemia, in the experiment with HS 578T breast and in the experiment with MCF7 breast was more than 100 µM in each case.
For `Nc1ccc(/C=C/c2ccc3cccnc3c2)cc1`, the TGI in the experiment on HL-60(TB) leukemia, in the experiment with OVCAR-8 ovarian, with A549 NSCLC, with SR leukemia, in the experiment with HS 578T breast and in the experiment on LOX IMVI melanoma was more than 100 µM throughout. The same compound had a TGI with MCF7 breast of more than 100 µM.
`CC1=NOC(=O)/C1=C/c1ccc2c(c1)OCO2`: the TGI is 86.3 µM in the experiment on OVCAR-8 ovarian; 56.8 µM with BT-549 breast; more than 100 µM in the experiment on A549 NSCLC; 52.5 µM in the experiment on SR leukemia; more than 100 µM in the experiment on HS 578T breast; 36.1 µM in the experiment with LOX IMVI melanoma. For the same compound, the TGI in the experiment on MCF7 breast was more than 100 µM.
For `O=c1/c(=N\Nc2ccccc2)c2cccc3ccc4cccc1c4c32`, the TGI in the experiment with OVCAR-8 ovarian, in the experiment on BT-549 breast, with A549 NSCLC, in the experiment with SR leukemia, with HS 578T breast and in the experiment on LOX IMVI melanoma was more than 100 µM throughout.
With `CO/N=C(\COc1ccc2oc(-c3ccccc3)cc(=O)c2c1)c1ccc(F)cc1`, the GI50 in the experiment with HL-60(TB) leukemia is 27.3 µM; in the experiment on OVCAR-8 ovarian it was 21 µM; in the experiment on BT-549 breast, 29.6 µM; in the experiment with A549 NSCLC, 20 µM; with SR leukemia, 15.7 µM; with HS 578T breast, 23.2 µM. Moreover, the GI50 with LOX IMVI melanoma is 25.2 µM. Besides, the TGI in the experiment with HL-60(TB) leukemia is more than 100 µM; in the experiment on OVCAR-8 ovarian, 47.6 µM; with BT-549 breast it was more than 100 µM; in the experiment on A549 NSCLC, 48.7 µM; in the experiment on SR leukemia, more than 100 µM; with HS 578T breast it was 71 µM. In the experiment on LOX IMVI melanoma, this compound displayed a TGI of 77.9 µM.
For the compound `CCn1c(-c2nonc2N)nc2c(N3CCCC3)nccc21`, the GI50 with HL-60(TB) leukemia was 24.9 µM; with OVCAR-8 ovarian it was 9.88 µM; in the experiment on BT-549 breast, more than 21.8 µM; in the experiment on A549 NSCLC, 13.2 µM; in the experiment with HS 578T breast it was more than 19.4 µM; in the experiment on LOX IMVI melanoma, 8.91 µM. Besides, in the experiment on MCF7 breast, the GI50 was 5.27 µM. For the same compound, the TGI in the experiment on HL-60(TB) leukemia, with OVCAR-8 ovarian, in the experiment with BT-549 breast, in the experiment on A549 NSCLC, in the experiment with HS 578T breast and in the experiment on LOX IMVI melanoma was more than 25 µM in each case. In addition, in the experiment on MCF7 breast, the TGI is more than 25 µM.
As for `CC1(C)CCC[C@]2(C)c3ccccc3C(=O)CC12` (stereo partly drawn), the GI50 was 40.5 µM in the experiment on HL-60(TB) leukemia; 32.1 µM in the experiment with OVCAR-8 ovarian; 39.4 µM with BT-549 breast; 54.1 µM in the experiment with A549 NSCLC; 23.2 µM in the experiment on HS 578T breast; 38.4 µM with LOX IMVI melanoma. Also, the GI50 in the experiment on MCF7 breast was 38.2 µM. Further, the TGI with HL-60(TB) leukemia was more than 100 µM; in the experiment on OVCAR-8 ovarian, more than 100 µM; in the experiment with BT-549 breast, more than 100 µM; in the experiment with A549 NSCLC it was more than 100 µM; with HS 578T breast, 95.3 µM; in the experiment on LOX IMVI melanoma it was more than 100 µM. In addition, the TGI in the experiment with MCF7 breast was more than 100 µM.
For `CCOC(=O)/C=C/c1cccc(F)c1`, the TGI in the experiment with HL-60(TB) leukemia, in the experiment on OVCAR-8 ovarian, in the experiment on BT-549 breast, in the experiment with A549 NSCLC, in the experiment with SR leukemia and with LOX IMVI melanoma was more than 100 µM each time. This compound returned a TGI in the experiment with MCF7 breast of more than 100 µM.
As to `COc1ccc2nc3cc(Cl)ccc3c(Nc3cc(CN4CCCC4)c(O)c(CN4CCCC4)c3)c2n1`, the GI50 is 2.07 µM in the experiment on HL-60(TB) leukemia; 0.748 µM in the experiment with OVCAR-8 ovarian; 2.46 µM with BT-549 breast; 1.29 µM with A549 NSCLC; 0.902 µM with SR leukemia; 1.4 µM in the experiment with LOX IMVI melanoma. Moreover, the GI50 with MCF7 breast was 1 µM. Also, the TGI worked out at 4.78 µM with HL-60(TB) leukemia; 13.3 µM in the experiment on OVCAR-8 ovarian; 5.66 µM in the experiment with BT-549 breast; 22 µM with A549 NSCLC; 3.14 µM in the experiment on SR leukemia; 5.09 µM in the experiment with LOX IMVI melanoma. For the same compound, the TGI in the experiment with MCF7 breast amounted to 8.34 µM.
